Measurements as given in US20240018123A1, “COMPOUND FOR INHIBITING OR DISINTEGRATING ANDROGEN RECEPTOR, AND PHARMACEUTICAL USE THEREOF” (KOREA RESEARCH INSTITUTE OF CHEMICAL TECHNOLOGY, priority 2020, published 2024).

Target: T1, Androgen receptor (AR) (Homo sapiens, UniProt P10275, T878A)
T1 construct: 5.5×10^5 LNCap cells were injected into each well of a 6-well plate; endogenous in cells; host or cells: LNCaP
T1 sequence (P10275 1-920 T878A): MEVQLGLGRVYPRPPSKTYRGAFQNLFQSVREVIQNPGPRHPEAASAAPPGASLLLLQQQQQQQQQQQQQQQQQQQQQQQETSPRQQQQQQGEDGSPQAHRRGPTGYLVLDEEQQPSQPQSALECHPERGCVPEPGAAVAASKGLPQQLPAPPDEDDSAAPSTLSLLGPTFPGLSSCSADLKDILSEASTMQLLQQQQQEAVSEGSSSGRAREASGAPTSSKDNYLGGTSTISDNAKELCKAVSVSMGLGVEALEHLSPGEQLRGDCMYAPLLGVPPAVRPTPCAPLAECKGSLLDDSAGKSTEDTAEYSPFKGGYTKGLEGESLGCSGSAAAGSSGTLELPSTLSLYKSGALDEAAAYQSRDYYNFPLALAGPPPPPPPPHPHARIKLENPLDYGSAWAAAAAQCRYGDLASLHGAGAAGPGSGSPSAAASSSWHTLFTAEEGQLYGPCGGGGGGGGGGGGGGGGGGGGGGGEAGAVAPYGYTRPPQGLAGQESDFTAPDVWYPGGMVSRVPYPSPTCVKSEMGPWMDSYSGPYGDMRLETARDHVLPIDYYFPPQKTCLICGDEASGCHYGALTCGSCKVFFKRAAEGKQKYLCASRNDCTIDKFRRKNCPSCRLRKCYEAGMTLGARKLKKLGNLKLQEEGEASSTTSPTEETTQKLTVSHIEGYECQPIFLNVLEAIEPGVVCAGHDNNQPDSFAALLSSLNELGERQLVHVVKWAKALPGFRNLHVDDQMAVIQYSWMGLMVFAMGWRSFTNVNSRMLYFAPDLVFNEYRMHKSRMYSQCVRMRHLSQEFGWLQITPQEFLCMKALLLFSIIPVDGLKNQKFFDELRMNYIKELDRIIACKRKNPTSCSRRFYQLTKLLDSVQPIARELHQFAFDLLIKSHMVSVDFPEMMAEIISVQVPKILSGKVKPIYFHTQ
Experiment: Assessment of AR proteolytic activity (Western blotting of LNCap cell lysates)
Assay type: cell-based
Details: 24 hours of treatment, Western blotting quantified with Image J
Procedure: Assessment of AR Proteolytic Activity
Androgen receptor (AR) proteolytic activity of the compound according to the present invention was evaluated as follows: Specifically, 5.5×10^5 LNCap cells were injected into each well of a 6-well plate. […] After 24 hours of treatment, cells were collected and lysed using RIPA Lysis buffer (50 mM Tris-HCl, pH7.5, 150 mM NaCl, 1% Triton X-100, 2 mM EDTA, 0.1% SDS, 0.5% sodium deoxycholate and protease inhibitor cocktail) to make cell lysates. Western blotting was performed, and the results were quantified using Image J program.

Going from `CC1(C)C(NC(=O)c2ccc(N3CC[C@@H](CN4CC5(CCN(c6ccc7c(=O)n(C8CCC(=O)NC8=O)nnc7c6)CC5)C4)C3)nc2)C(C)(C)C1Oc1ccc(C#N)c(Cl)c1` (stereo partly drawn) [Example 187, N-((1r,3S)-3-(3-chloro-4-cyanophenoxy)-2,2,4,4-tetramethylcyclobutyl)-6-((3S)-3-((7-(3-(2,6-dioxopiperidin-3-yl)-4-oxo-3,4-dihydrobenzo[d][1,2,3]triazin-7-yl)-2,7-diazaspiro[3.5]nonan-2-yl)methyl)pyrrolidin-1-yl)nicotinamide] to `N#Cc1ccc(OC2CCC(NC(=O)c3ccc(N4CCC(CN5CCN(c6ccc7c(=O)n(C8CCC(=O)NC8=O)nnc7c6)CC5)CC4)nc3)CC2)cc1Cl` (stereo not drawn) [Example 164, N-((1r,4r)-4-(3-chloro-4-cyanophenoxy)cyclohexyl)-6-(4-((4-(3-(2,6-dioxopiperidin-3-yl)-4-oxo-3,4-dihydrobenzo[d][1,2,3]triazin-7-yl)piperazin-1-yl)methyl)piperidin-1-yl)nicotinamide], the “Degradation (1 μM treated in LNCaP, % AR remaining)” value falls from 27% to 13%.

First: CC1(C)C(NC(=O)c2ccc(N3CC[C@H](CN4CCN(C5CCN(c6ccc7nnn(C8CCC(=O)NC8=O)c(=O)c7c6)CC5)CC4)C3)nc2)C(C)(C)C1Oc1ccc(C#N)c(Cl)c1 (stereo partly drawn) [Example 192, N-((1r,3R)-3-(3-chloro-4-cyanophenoxy)-2,2,4,4-tetramethylcyclobutyl)-6-((3R)-3-((4-(1-(3-(2,6-dioxopiperidin-3-yl)-4-oxo-3,4-dihydrobenzo[d][1,2,3]triazin-6-yl)piperidin-4-yl)piperazin-1-yl)methyl)pyrrolidin-1-yl)nicotinamide]
Second: CC1(C)C(NC(=O)c2ccc(C#CCN3CCC4(CC3)CN(c3ccc5c(=O)n(C6CCC(=O)NC6=O)nnc5c3)C4)nc2)C(C)(C)C1Oc1ccc(C#N)c(Cl)c1 (stereo not drawn) [Example 181, N-((1r,3r)-3-(3-chloro-4-cyanophenoxy)-2,2,4,4-tetramethylcyclobutyl)-6-(3-(2-(3-(2,6-dioxopiperidin-3-yl)-4-oxo-3,4-dihydrobenzo[d][1,2,3]triazin-7-yl)-2,7-diazaspiro[3.5]nonan-7-yl)prop-1-yn-1-yl)nicotinamide]
The “Degradation (1 μM treated in LNCaP, % AR remaining)” value of the first is higher: 22% for the first, 18% for the second.

Compared with `CC1(C)C(NC(=O)c2ccc(N3CC[C@@H](CN4CC5(CCN(c6ccc7nnn(C8CCC(=O)NC8=O)c(=O)c7c6)CC5)C4)C3)nc2)C(C)(C)C1Oc1ccc(C#N)c(Cl)c1` (stereo partly drawn) [Example 188, N-((1r,3S)-3-(3-chloro-4-cyanophenoxy)-2,2,4,4-tetramethylcyclobutyl)-6-((3S)-3-((7-(3-(2,6-dioxopiperidin-3-yl)-4-oxo-3,4-dihydrobenzo[d][1,2,3]triazin-6-yl)-2,7-diazaspiro[3.5]nonan-2-yl)methyl)pyrrolidin-1-yl)nicotinamide], `CC1(C)C(NC(=O)c2ccc(N3CCC(CN4CC5(CCN(c6ccc7nnn(C8CCC(=O)NC8=O)c(=O)c7c6)CC5)C4)CC3)nc2)C(C)(C)C1Oc1ccc(C#N)c(Cl)c1` (stereo not drawn) [Example 170, N-((1r,3r)-3-(3-chloro-4-cyanophenoxy)-2,2,4,4-tetramethylcyclobutyl)-6-(4-((7-(3-(2,6-dioxopiperidin-3-yl)-4-oxo-3,4-dihydrobenzo[d][1,2,3]triazin-6-yl)-2,7-diazaspiro[3.5]nonan-2-yl)methyl)piperidin-1-yl)nicotinamide] is lower in “Degradation (1 μM treated in LNCaP, % AR remaining)” value: 21% for the first, 16% for the second.

Going from “N-((1r,3r)-3-(3-chloro-4-cyanophenoxy)-2,2,4,4-tetramethylcyclobutyl)-4-(4-(1-(3-(2,6-dioxopiperidin-3-yl)-4-oxo-3,4-dihydrobenzo[d][1,2,3]triazin-6-yl)azetidine-3-carbonyl)piperazin-1-yl)benzamide [Example 44]” to `CC1(C)C(NC(=O)c2ccc(N3CCC(CCN4CCN(c5ccc6c(=O)n(C7CCC(=O)NC7=O)nnc6c5)CC4)CC3)nc2)C(C)(C)C1Oc1ccc(C#N)c(Cl)c1` (stereo not drawn) [Example 197, N-((1r,3r)-3-(3-chloro-4-cyanophenoxy)-2,2,4,4-tetramethylcyclobutyl)-6-(4-(2-(4-(3-(2,6-dioxopiperidin-3-yl)-4-oxo-3,4-dihydrobenzo[d][1,2,3]triazin-7-yl)piperazin-1-yl)ethyl)piperidin-1-yl)nicotinamide], the “Degradation (1 μM treated in LNCaP, % AR remaining)” value rises from 3.7% to 16%.

First: CC1(C)C(NC(=O)c2ccc(N3CCC4(CC3)CN(CC3CCN(c5ccc6c(=O)n(C7CCC(=O)NC7=O)nnc6c5)CC3)C4)nc2)C(C)(C)C1Oc1ccc(C#N)c(Cl)c1 (stereo not drawn) [Example 173, N-((1r,3r)-3-(3-chloro-4-cyanophenoxy)-2,2,4,4-tetramethylcyclobutyl)-6-(2-((1-(3-(2,6-dioxopiperidin-3-yl)-4-oxo-3,4-dihydrobenzo[d][1,2,3]triazin-7-yl)piperidin-4-yl)methyl)-2,7-diazaspiro[3.5]nonan-7-yl)nicotinamide]
Second: N#Cc1ccc(O[C@H]2CC[C@H](NC(=O)c3ccc(N4CCC(CN5CC6(CCN(c7ccc8nnn(C9CCC(=O)NC9=O)c(=O)c8c7)CC6)C5)CC4)nc3)CC2)cc1Cl (stereo partly drawn) [Example 168, N-((1r,4r)-4-(3-chloro-4-cyanophenoxy)cyclohexyl)-6-(4-((7-(3-(2,6-dioxopiperidin-3-yl)-4-oxo-3,4-dihydrobenzo[d][1,2,3]triazin-6-yl)-2,7-diazaspiro[3.5]nonan-2-yl)methyl)piperidin-1-yl)nicotinamide]
The “Degradation (1 μM treated in LNCaP, % AR remaining)” value of the first is lower: 9% for the first, 10% for the second.

First: CC1(C)[C@H](NC(=O)c2ccc(C#CC3CCN(CC4CCN(c5ccc6c(=O)n(C7CCC(=O)NC7=O)nnc6c5)CC4)CC3)nc2)C(C)(C)[C@H]1Oc1ccc(C#N)c(Cl)c1 (stereo partly drawn) [Example 195, N-((1r,3r)-3-(3-chloro-4-cyanophenoxy)-2,2,4,4-tetramethylcyclobutyl)-6-((1-((1-(3-(2,6-dioxopiperidin-3-yl)-4-oxo-3,4-dihydrobenzo[d][1,2,3]triazin-7-yl)piperidin-4-yl)methyl)piperidin-4-yl)ethynyl)nicotinamide]
Second: CC1(C)C(NC(=O)c2ccc(N3CCC(CN4CCN(c5ccc6nnn(C7CCC(=O)NC7=O)c(=O)c6c5)CC4)CC3)cc2)C(C)(C)C1Oc1ccc(C#N)c(Cl)c1 (stereo not drawn) [Example 166, N-((1r,3r)-3-(3-chloro-4-cyanophenoxy)-2,2,4,4-tetramethylcyclobutyl)-4-(4-((4-(3-(2,6-dioxopiperidin-3-yl)-4-oxo-3,4-dihydrobenzo[d][1,2,3]triazin-6-yl)piperazin-1-yl)methyl)piperidin-1-yl)benzamide]
The “Degradation (1 μM treated in LNCaP, % AR remaining)” value of the first is lower: 3% for the first, 13% for the second.

Compared with `N#Cc1ccc(OC2CCC(NC(=O)c3ccc(N4CCC(CN5CCN(c6ccc7nnn(C8CCC(=O)NC8=O)c(=O)c7c6)CC5)CC4)nc3)CC2)cc1Cl` (stereo not drawn) [Example 160, N-((1r,4r)-4-(3-chloro-4-cyanophenoxy)cyclohexyl)-6-(4-((4-(3-(2,6-dioxopiperidin-3-yl)-4-oxo-3,4-dihydrobenzo[d][1,2,3]triazin-6-yl)piperazin-1-yl)methyl)piperidin-1-yl)nicotinamide], `CC1(C)C(NC(=O)c2ccc(N3CC[C@H](CN4CC5(CCN(c6ccc7nnn(C8CCC(=O)NC8=O)c(=O)c7c6)CC5)C4)C3)nc2)C(C)(C)C1Oc1ccc(C#N)c(Cl)c1` (stereo partly drawn) [Example 186, N-((1r,3R)-3-(3-chloro-4-cyanophenoxy)-2,2,4,4-tetramethylcyclobutyl)-6-((3R)-3-((7-(3-(2,6-dioxopiperidin-3-yl)-4-oxo-3,4-dihydrobenzo[d][1,2,3]triazin-6-yl)-2,7-diazaspiro[3.5]nonan-2-yl)methyl)pyrrolidin-1-yl)nicotinamide] is lower in “Degradation (1 μM treated in LNCaP, % AR remaining)” value: 31% for the first, 11% for the second.

For `CC1(C)C(NC(=O)c2ccc(N3CCC4(CC3)CN(CC3CN(c5ccc6nnn(C7CCC(=O)NC7=O)c(=O)c6c5)C3)C4)nc2)C(C)(C)C1Oc1ccc(C#N)c(Cl)c1` (stereo not drawn) [Example 176, N-((1r,3r)-3-(3-chloro-4-cyanophenoxy)-2,2,4,4-tetramethylcyclobutyl)-6-(2-((1-(3-(2,6-dioxopiperidin-3-yl)-4-oxo-3,4-dihydrobenzo[d][1,2,3]triazin-6-yl)azetidin-3-yl)methyl)-2,7-diazaspiro[3.5]nonan-7-yl)nicotinamide], the “Degradation (1 μM treated in LNCaP, % AR remaining)” value was 6%.
